For one series, the system named is rat erythrocytes. Kind of series: Hemolysis assay. It is filed as cell-based. Particulars: for HC10 / HC50: pH 7.4. Summed up: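 Washed Sprague-Dawley rat erythrocytes (10% suspension in PBS pH 7.4) mixed with peptoids (0–100 µM), 60 min at 37 °C; supernatant A540 expressed as % of 1% Triton X-100 lysis. HC10/HC50 are concentrations giving 10%/50% hemolysis; Hmax is hemolysis at 100 µM.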

Series [1] can be described thus: Analytical reversed-phase HPLC elution (hydrophobicity). Type of series: physicochemical. Particulars: Table S1; analytical RP-HPLC, SunFire C18, water/ACN + 0.1% TFA, 5 to 100% B linear over 30 min, 1 mL/min, UV 220 nm; approximate comparison of hydrophobicity. Summed up: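 Retention time (tR) reflects hydrophobicity, with detection at 220 nm. Elution used a 5–100% acetonitrile linear gradient over 30 min after a 2 min hold at 5%, then 5 min at 100%, with both phases containing 0.1% TFA. Column was an analytical C18 (4.6 × 250 mm, 5 μm) run at 1 mL/min.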

Square brackets hold non-standard residues; d marks the D form. Peptide text beside a SMILES is read from it. Gly(N(CH2)2(3-indolyl)) = O=C(O)CNCCc1c[nH]c2ccccc12; Nspe = C[C@H](NCC(=O)O)c1ccccc1; Nphe = O=C(O)CNCc1ccccc1; Nlys = NCCCCNCC(=O)O Where only a bound is given, the exact number is not on record here.

As usually defined, the HC50 is the concentration that lyses half of the red blood cells. The low end stands for more damage to red cells, the high end for less damage to red cells.

`C[C@@H](c1ccccc1)N(CC(=O)N(CCCCN)CC(=O)N(CCCCN)CC(=O)N(CC(=O)N(CC(=O)N(CCCCN)CC(=O)N(CC(=O)N(CC(=O)N(CCCCN)CC(N)=O)[C@@H](C)c1ccccc1)[C@@H](C)c1ccccc1)[C@@H](C)c1ccccc1)[C@@H](C)c1ccccc1)C(=O)CN(CCCCN)C(=O)CN(CCc1c[nH]c2ccccc12)C(=O)CNCCc1c[nH]c2ccccc12` [peptoid 38] (H-[Gly(N(CH2)2(3-indolyl))][Gly(N(CH2)2(3-indolyl))][Nlys][Nspe][Nlys][Nlys][Nspe][Nspe][Nlys][Nspe][Nspe][Nlys]-NH2): in the series with rat erythrocytes, the “Hmax (100 µM)” value is given as 5.9±0.5%, the HC10 is given as more than 100 µM and the HC50 was more than 100 µM. The HPLC elution in series [1] came to 47.8 % MeCN.

Regarding `C[C@@H](c1ccccc1)N(CC(=O)N(CCCCN)CC(=O)N(CC(=O)N(CC(=O)N(CCCCN)CC(=O)N(CCCCN)CC(=O)N(CC(=O)N(CCCCN)CC(=O)N(CCc1c[nH]c2ccccc12)CC(=O)N(CCc1c[nH]c2ccccc12)CC(N)=O)Cc1ccccc1)[C@@H](C)c1ccccc1)[C@@H](C)c1ccccc1)C(=O)CN(C(=O)CNCCCCN)[C@@H](C)c1ccccc1` [peptoid 39] (H-[Nlys][Nspe][Nspe][Nlys][Nspe][Nspe][Nlys][Nlys][Nphe][Nlys][Gly(N(CH2)2(3-indolyl))][Gly(N(CH2)2(3-indolyl))]-NH2), in the series with rat erythrocytes, the “Hmax (100 µM)” value was 10.2±0.3%, the HC10 was found to be 100 µM and the HC50 is reported as more than 100 µM. Further, the HPLC elution in series [1] is on record as 47.8 % MeCN.

On to `C[C@@H](c1ccccc1)N(CC(=O)N(CCCCN)CC(=O)N(CCc1c[nH]c2ccccc12)CC(=O)N(CCc1c[nH]c2ccccc12)CC(N)=O)C(=O)CN(CCCCN)C(=O)CN(CCCCN)C(=O)CN(Cc1ccccc1)C(=O)CN(Cc1ccccc1)C(=O)CN(CCCCN)C(=O)CN(C(=O)CN(C(=O)CNCCCCN)[C@@H](C)c1ccccc1)[C@@H](C)c1ccccc1` [peptoid 40] (H-[Nlys][Nspe][Nspe][Nlys][Nphe][Nphe][Nlys][Nlys][Nspe][Nlys][Gly(N(CH2)2(3-indolyl))][Gly(N(CH2)2(3-indolyl))]-NH2), for which, in the series on rat erythrocytes, the “Hmax (100 µM)” value is 8.9±0.2%, the HC10 is listed as more than 100 µM and the HC50 is more than 100 µM. The HPLC elution in series [1] was found to be 47.5 % MeCN.

For `C[C@@H](c1ccccc1)N(CC(=O)N(CCCCN)CC(=O)N(CCc1c[nH]c2ccccc12)CC(=O)N(CCc1c[nH]c2ccccc12)CC(N)=O)C(=O)CN(CCCCN)C(=O)CN(CCCCN)C(=O)CN(C(=O)CN(C(=O)CN(CCCCN)C(=O)CN(Cc1ccccc1)C(=O)CN(Cc1ccccc1)C(=O)CNCCCCN)[C@@H](C)c1ccccc1)[C@@H](C)c1ccccc1` [peptoid 41] (H-[Nlys][Nphe][Nphe][Nlys][Nspe][Nspe][Nlys][Nlys][Nspe][Nlys][Gly(N(CH2)2(3-indolyl))][Gly(N(CH2)2(3-indolyl))]-NH2), in the series with rat erythrocytes, the “Hmax (100 µM)” value came out at 7.1±0.1%, the HC10 is reported as more than 100 µM and the HC50 is listed as more than 100 µM. The HPLC elution in series [1] stood at 47.5 % MeCN.

Turning to `C[C@@H](c1ccccc1)N(CC(=O)N(CCCCN)CC(=O)N(CC(=O)N(CC(=O)N(CCCCN)CC(=O)N(CC(=O)N(CC(=O)N(CCCCN)CC(=O)N(CC(=O)N(CC(=O)N(CC(N)=O)Cc1ccccc1)[C@@H](C)c1ccccc1)[C@@H](C)c1ccccc1)[C@@H](C)c1ccccc1)[C@@H](C)c1ccccc1)[C@@H](C)c1ccccc1)[C@@H](C)c1ccccc1)C(=O)CN(C(=O)CN(CCCCN)C(=O)CNCc1ccccc1)[C@@H](C)c1ccccc1` [peptoid 42] (H-[Nphe][Nlys][Nspe][Nspe][Nlys][Nspe][Nspe][Nlys][Nspe][Nspe][Nlys][Nspe][Nspe][Nphe]-NH2), in the series with rat erythrocytes, the “Hmax (100 µM)” value was determined as 105.9±1.1%, the HC10 is given as less than 3.1 µM and the concentration for 50% haemolysis (HC50) is 6.6 µM. The HPLC elution in series [1] is 57.7 % MeCN.

As for `C[C@@H](c1ccccc1)N(CC(N)=O)C(=O)CN(C(=O)CN(CCCCN)C(=O)CN(C(=O)CN(C(=O)CN(CCCCN)C(=O)CN(C(=O)CN(C(=O)CN(CCCCN)C(=O)CN(C(=O)CN(C(=O)CN(CCCCN)C(=O)CN(Cc1ccccc1)C(=O)CNCc1ccccc1)[C@@H](C)c1ccccc1)[C@@H](C)c1ccccc1)[C@@H](C)c1ccccc1)[C@@H](C)c1ccccc1)[C@@H](C)c1ccccc1)[C@@H](C)c1ccccc1)[C@@H](C)c1ccccc1` [peptoid 43], in the series on rat erythrocytes, the “Hmax (100 µM)” value is 105.6±3.8%, the HC10 was less than 3.1 µM and the HC50 was 6.4 µM. Also, the HPLC elution in series [1] is 56.8 % MeCN.

Turning to `C[C@@H](c1ccccc1)N(CC(=O)N(CCCCN)CC(=O)N(CC(=O)N(CC(=O)N(CCCCN)CC(=O)N(CC(=O)N(CC(=O)N(CCCCN)CC(=O)N(CC(=O)N(CC(N)=O)Cc1ccccc1)Cc1ccccc1)[C@@H](C)c1ccccc1)[C@@H](C)c1ccccc1)[C@@H](C)c1ccccc1)[C@@H](C)c1ccccc1)C(=O)CN(C(=O)CNCCCCN)[C@@H](C)c1ccccc1` [peptoid 44] (H-[Nlys][Nspe][Nspe][Nlys][Nspe][Nspe][Nlys][Nspe][Nspe][Nlys][Nphe][Nphe]-NH2), in the series with rat erythrocytes, the “Hmax (100 µM)” value was 97.9±3.7%, the HC10 amounted to 6.3 µM and the HC50 is listed as 28.6 µM. For the same compound, the HPLC elution in series [1] amounted to 53.1 % MeCN.

For the compound `C[C@@H](c1ccccc1)N(CC(N)=O)C(=O)CN(C(=O)CN(CCCCN)C(=O)CN(C(=O)CN(C(=O)CN(CCCCN)C(=O)CN(C(=O)CN(C(=O)CN(CCCCN)C(=O)CN(Cc1ccccc1)C(=O)CN(Cc1ccccc1)C(=O)CNCCCCN)[C@@H](C)c1ccccc1)[C@@H](C)c1ccccc1)[C@@H](C)c1ccccc1)[C@@H](C)c1ccccc1)[C@@H](C)c1ccccc1` [peptoid 46], in the series with rat erythrocytes, the “Hmax (100 µM)” value is listed as 90.8±2.7%, the HC10 was found to be 6.9 µM and the HC50 stood at 36.5 µM. Also, the HPLC elution in series [1] was 53.7 % MeCN.

Turning to `C[C@@H](c1ccccc1)N(CC(N)=O)C(=O)CN(CCCCN)C(=O)CN(CCCCN)C(=O)CN(C(=O)CN(C(=O)CN(CCCCN)C(=O)CN(C(=O)CN(C(=O)CN(CCCCN)C(=O)CN(Cc1ccccc1)C(=O)CN(Cc1ccccc1)C(=O)CNCCCCN)[C@@H](C)c1ccccc1)[C@@H](C)c1ccccc1)[C@@H](C)c1ccccc1)[C@@H](C)c1ccccc1` [peptoid 47], in the series with rat erythrocytes, the “Hmax (100 µM)” value was 4.8±0.2%, the HC10 is recorded as more than 100 µM and the HC50 is more than 100 µM. Also, in series [1], the HPLC elution came to 47.8 % MeCN.

Consider `C[C@H](NCC(=O)N(CCCCN)CC(=O)N(CC(=O)N(CC(=O)N(CCCCN)CC(=O)N(CC(=O)N(CC(=O)N(CCCCN)CC(=O)N(CC(=O)N(CC(=O)N(CCCCN)CC(=O)N(CC(N)=O)[C@@H](C)c1ccccc1)[C@@H](C)c1ccccc1)[C@@H](C)c1ccccc1)[C@@H](C)c1ccccc1)[C@@H](C)c1ccccc1)[C@@H](C)c1ccccc1)[C@@H](C)c1ccccc1)c1ccccc1` [peptoid 48] (H-[Nspe][Nlys][Nspe][Nspe][Nlys][Nspe][Nspe][Nlys][Nspe][Nspe][Nlys][Nspe]-NH2), for which, in the series with rat erythrocytes, the “Hmax (100 µM)” value amounted to 79.9±3.6%, the HC10 amounted to 25.7 µM and the HC50 was 48.4 µM. In addition, in series [1], the HPLC elution came to 53.4 % MeCN.

`C[C@@H](c1ccccc1)N(CC(=O)N(CCCCN)CC(=O)N(CC(=O)N(CC(=O)N(CCCCN)CC(=O)N(CC(=O)N(CC(=O)N(CCCCN)CC(=O)N(CCCCN)CC(N)=O)[C@@H](C)c1ccccc1)[C@@H](C)c1ccccc1)[C@@H](C)c1ccccc1)[C@@H](C)c1ccccc1)C(=O)CN(C(=O)CNCCCCN)[C@@H](C)c1ccccc1` [peptoid 49] (H-[Nlys][Nspe][Nspe][Nlys][Nspe][Nspe][Nlys][Nspe][Nspe][Nlys][Nlys]-NH2): in the series with rat erythrocytes, the “Hmax (100 µM)” value worked out at 0.3±0.3%, the HC10 is listed as more than 100 µM and the 50% haemolytic concentration (HC50) is more than 100 µM. Also, in series [1], the HPLC elution is reported as 46.6 % MeCN.

Consider `C[C@@H](c1ccccc1)N(CC(=O)N(CCCCN)CC(=O)N(CC(=O)N(CC(=O)N(CCCCN)CC(=O)N(CC(=O)N(CC(=O)N(CCCCN)CC(=O)N(CC(=O)N(CC(=O)N(CCCCN)CC(=O)N(CCCCN)CC(N)=O)[C@@H](C)c1ccccc1)[C@@H](C)c1ccccc1)[C@@H](C)c1ccccc1)[C@@H](C)c1ccccc1)[C@@H](C)c1ccccc1)[C@@H](C)c1ccccc1)C(=O)CNCCc1c[nH]c2ccccc12` [peptoid 61] (H-[Gly(N(CH2)2(3-indolyl))][Nspe][Nlys][Nspe][Nspe][Nlys][Nspe][Nspe][Nlys][Nspe][Nspe][Nlys][Nlys]-NH2), for which, in the series on rat erythrocytes, the “Hmax (100 µM)” value is 79.9±0.7%, the HC10 stood at 19.3 µM and the HC50 turned out to be 65.4 µM. Besides, the HPLC elution in series [1] amounted to 51.2 % MeCN.

As for `C[C@@H](c1ccccc1)N(CC(N)=O)C(=O)CN(CCCCN)C(=O)CN(C(=O)CN(CCCCN)C(=O)CN(CCCCN)C(=O)CN(C(=O)CN(C(=O)CN(CCCCN)C(=O)CN(C(=O)CN(C(=O)CN(CCCCN)C(=O)CN(C(=O)CNCCc1c[nH]c2ccccc12)[C@@H](C)c1ccccc1)[C@@H](C)c1ccccc1)[C@@H](C)c1ccccc1)[C@@H](C)c1ccccc1)[C@@H](C)c1ccccc1)[C@@H](C)c1ccccc1` [peptoid 62], in the series with rat erythrocytes, the “Hmax (100 µM)” value was determined as 44.8±8.1%, the HC10 worked out at 36.2 µM and the HC50 is on record as more than 100 µM. Also, in series [1], the HPLC elution is recorded as 50.8 % MeCN.
